Target: T1, human LPA1 (Homo sapiens, UniProt Q92633)
T1 construct: the full-length cDNA for human LPA1 was obtained by PCR of the reverse transcription reaction; expressed in transfected cells
Assay: LPA1 calcium flux assay
Format: cell-based
Settings: CHO cells expressing human LPA1, stimulated with 10 nM LPA; read-out: HLPA1 Ca Flux IC50
Method in brief: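 Antagonism measured as block of 10 nM LPA-evoked calcium rise in stable human LPA1-CHO cells. After overnight serum-free culture and 1 h dye loading at 37 °C (buffer with 0.3% fatty-acid-free albumin), compound was added for 30 min at room temperature. Titration curves gave IC50.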

T1 sequence (Q92633 whole entry): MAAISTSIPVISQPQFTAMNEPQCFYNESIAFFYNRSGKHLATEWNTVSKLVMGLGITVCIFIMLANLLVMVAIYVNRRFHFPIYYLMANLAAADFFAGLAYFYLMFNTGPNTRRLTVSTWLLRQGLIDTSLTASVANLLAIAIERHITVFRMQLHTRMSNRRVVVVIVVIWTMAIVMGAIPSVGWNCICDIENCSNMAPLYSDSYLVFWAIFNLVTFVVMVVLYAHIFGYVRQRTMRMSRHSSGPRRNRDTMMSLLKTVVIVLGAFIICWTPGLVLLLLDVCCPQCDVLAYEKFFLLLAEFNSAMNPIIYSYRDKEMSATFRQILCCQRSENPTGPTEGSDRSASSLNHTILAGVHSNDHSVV

Row | SMILES | IC50
1 | CC(=O)N(Cc1c(C)noc1-c1ccc(-c2ccc(C3(C(=O)O)CC3)cc2)cc1)CC(C)c1ccccc1 (stereo not shown) [Compound 1-70, 1-[4′-(4-{[Acetyl-(2-phenyl-propyl)-amino]-methyl}-3-methyl-isoxazol-5-yl)-biphenyl-4-yl]-cyclopropanecarboxylic acid] | < 300 nM
2 | Cc1noc(-c2ccc(-c3ccc(C4(C(=O)O)CC4)cc3)cc2)c1CN(C)C(=O)Cc1ccccc1 [Compound 1-71, 1-(4′-{3-Methyl-4-[(methyl-phenylacetyl-amino)-methyl]-isoxazol-5-yl}-biphenyl-4-yl)-cyclopropanecarboxylic acid] | 300 to 1000 nM
3 | Cc1noc(-c2ccc(-c3ccc(C4(C(=O)O)CC4)cc3)cc2)c1CN(C)C(=O)C(C)Oc1ccccc1 (stereo not shown) [Compound 1-72, 1-[4′-(3-Methyl-4-{[methyl-(2-phenoxy-propionyl)-amino]-methyl}-isoxazol-5-yl)-biphenyl-4-yl]-cyclopropanecarboxylic acid] | < 300 nM
4 | Cc1noc(-c2ccc(-c3ccc(C4(C(=O)O)CC4)cc3)cc2)c1CN(CC(C)c1ccccc1)C(=O)C1CC1 (stereo not shown) [Compound 1-73, 1-[4′-(4-{[Cyclopropanecarbonyl-(2-phenyl-propyl)-amino]-methyl}-3-methyl-isoxazol-5-yl)-biphenyl-4-yl]-cyclopropanecarboxylic acid] | 1000 to 50000 nM
5 | Cc1noc(-c2ccc(-c3ccc(C4(C(=O)O)CC4)cc3)cc2)c1CN(CC(C)c1ccccc1)C(=O)c1ccccc1 (stereo not shown) [Compound 1-74, 1-[4′-(4-{[Benzoyl-(2-phenyl-propyl)-amino]-methyl}-3-methyl-isoxazol-5-yl)-biphenyl-4-yl]-cyclopropanecarboxylic acid] | 1000 to 50000 nM
6 | Cc1noc(-c2ccc(-c3ccc(C4(C(=O)O)CC4)cc3)cc2)c1CCOCc1ccccn1 [Compound 1-75, 1-(4′-{3-Methyl-4-[2-(pyridin-2-ylmethoxy)-ethyl]-isoxazol-5-yl}-biphenyl-4-yl)-cyclopropanecarboxylic acid] | 1000 to 50000 nM
7 | Cc1noc(-c2ccc(-c3ccc(C4(C(=O)O)CC4)cc3)cc2)c1CCOCc1cccnc1 [Compound 1-76, 1-(4′-{3-Methyl-4-[2-(pyridin-3-ylmethoxy)-ethyl]-isoxazol-5-yl}-biphenyl-4-yl)-cyclopropanecarboxylic acid] | 1000 to 50000 nM
8 | Cc1noc(-c2ccc(-c3ccc(C4(C(=O)O)CC4)cc3)cc2)c1CCOCc1ccncc1 [Compound 1-77, 1-(4′-{3-Methyl-4-[2-(pyridin-4-ylmethoxy)-ethyl]-isoxazol-5-yl}-biphenyl-4-yl)-cyclopropanecarboxylic acid] | > 50000 nM
9 | Cc1noc(-c2ccc(-c3ccc(C4(C(=O)O)CC4)cc3)cc2)c1CCC(=O)N(C)c1ccccc1 [Compound 1-82, 1-(4′-{3-Methyl-4-[2-(methyl-phenyl-carbamoyl)-ethyl]-isoxazol-5-yl}-biphenyl-4-yl)-cyclopropanecarboxylic acid] | < 300 nM
10 | Cc1noc(-c2ccc(-c3ccc(C4(C(=O)O)CC4)cc3)cc2)c1CC[S+]([O-])Cc1ccccc1 (stereo not shown) [Compound 1-84, 1-{4′-[3-Methyl-4-(2-phenylmethanesulfinyl-ethyl)-isoxazol-5-yl]-biphenyl-4-yl}-cyclopropanecarboxylic acid] | 1000 to 50000 nM
11 | Cc1noc(-c2ccc(-c3ccc(C4(C(=O)O)CC4)cc3)cc2)c1CCS(=O)(=O)Cc1ccccc1 [Compound 1-85, 1-{4′-[3-Methyl-4-(2-phenylmethanesulfonyl-ethyl)-isoxazol-5-yl]-biphenyl-4-yl}-cyclopropanecarboxylic acid] | > 50000 nM
12 | Cc1noc(-c2ccc(-c3ccc(C4(C(=O)O)CC4)cc3)cc2)c1CN(C)CC(C)c1ccccc1 (stereo not shown) [Compound 1-87, 1-[4′-(3-Methyl-4-{[methyl-(2-phenyl-propyl)-amino]-methyl}-isoxazol-5-yl)-biphenyl-4-yl]-cyclopropanecarboxylic acid] | < 300 nM
13 | Cc1noc(-c2ccc(-c3ccc(C4(C(=O)O)CC4)cc3)cc2)c1CC(=O)CCc1ccccc1 [Compound 1-88, 1-{4′-[3-Methyl-4-(2-oxo-4-phenyl-butyl)-isoxazol-5-yl]-biphenyl-4-yl}-cyclopropanecarboxylic acid] | < 300 nM
14 | Cc1noc(-c2ccc(-c3ccc(C4(C(=O)O)CC4)cc3)cc2)c1CC(=O)NC1Cc2ccccc2C1 [Compound 1-90, 1-{4′-[4-(Indan-2-ylcarbamoylmethyl)-3-methyl-isoxazol-5-yl]-biphenyl-4-yl}-cyclopropanecarboxylic acid] | < 300 nM
15 | Cc1noc(-c2ccc(-c3ccc(C4(C(=O)O)CC4)cc3)cc2)c1CC(=O)N(C)Cc1ccccc1F [Compound 1-91, 1-[4′-(4-{[(2-Fluoro-benzyl)-methyl-carbamoyl]-methyl}-3-methyl-isoxazol-5-yl)-biphenyl-4-yl]-cyclopropanecarboxylic acid] | < 300 nM
16 | Cc1noc(-c2ccc(-c3ccc(C4(C(=O)O)CC4)cc3)cc2)c1CC(=O)N[C@H]1c2ccccc2C[C@H]1O [Compound 1-92, 1-(4′-{4-[((1S,2R)-2-Hydroxy-indan-1-ylcarbamoyl)-methyl]-3-methyl-isoxazol-5-yl}-biphenyl-4-yl)-cyclopropanecarboxylic acid] | 1000 to 50000 nM

Row | SMILES | IC50
17 | Cc1noc(-c2ccc(-c3ccc(C4(C(=O)O)CC4)cc3)cc2)c1/C=C\CCc1ccccc1 [Compound 1-94, 1-{4′-[3-Methyl-4-((Z)-4-phenyl-but-1-enyl)-isoxazol-5-yl]-biphenyl-4-yl}-cyclopropanecarboxylic acid] | < 300 nM
18 | Cc1noc(-c2ccc(-c3ccc(C4(C(=O)O)CC4)cc3)cc2)c1/C=C/CCc1ccccc1 [Compound 1-95, 1-{4′-[3-Methyl-4-((E)-4-phenyl-but-1-enyl)-isoxazol-5-yl]-biphenyl-4-yl}-cyclopropanecarboxylic acid] | 300 to 1000 nM
19 | Cc1noc(-c2ccc(-c3ccc(C4(C(=O)O)CC4)cc3)cc2)c1CSCC(C)C [Compound 1-96, 1-[4′-(4-Isobutylsulfanylmethyl-3-methyl-isoxazol-5-yl)-biphenyl-4-yl]-cyclopropanecarboxylic acid] | < 300 nM
20 | Cc1noc(-c2ccc(-c3ccc(C4(C(=O)O)CC4)cc3)cc2)c1C(C)C(=O)NC(C)c1ccccc1 (stereo not shown) [Compound 1-97, 1-(4′-{3-Methyl-4-[1-(1-phenyl-ethylcarbamoyl)-ethyl]-isoxazol-5-yl}-biphenyl-4-yl)-cyclopropanecarboxylic acid] | 1000 to 50000 nM
21 | Cc1noc(-c2ccc(-c3ccc(C4(C(=O)O)CC4)cc3)cc2)c1CNC(=O)C(C)(C)c1ccccc1 [Compound 1-98, 1-(4′-{3-Methyl-4-[(2-methyl-2-phenyl-propionylamino)-methyl]-isoxazol-5-yl}-biphenyl-4-yl)-cyclopropanecarboxylic acid] | < 300 nM
22 | Cc1noc(-c2ccc(-c3ccc(C4(C(=O)O)CC4)cc3)cc2)c1CC(=O)N[C@H]1CCc2ccccc21 [Compound 1-99, 1-{4′-[4-((S)-Indan-1-ylcarbamoylmethyl)-3-methyl-isoxazol-5-yl]-biphenyl-4-yl}-cyclopropanecarboxylic acid] | < 300 nM
23 | Cc1noc(-c2ccc(-c3ccc(C4(C(=O)O)CC4)cc3)cc2)c1CNC(=O)C(C)Oc1ccccc1 (stereo not shown) [Compound 1-100, 1-(4′-{3-Methyl-4-[(2-phenoxy-propionylamino)-methyl]-isoxazol-5-yl}-biphenyl-4-yl)-cyclopropanecarboxylic acid] | 300 to 1000 nM
24 | Cc1noc(-c2ccc(-c3ccc(C4(CC(=O)O)CC4)cc3)cc2)c1/C=C\CCc1ccccc1 [Compound 1-101, (1-{4′-[3-Methyl-4-((Z)-4-phenyl-but-1-enyl)-isoxazol-5-yl]-biphenyl-4-yl}-cyclopropyl)-acetic acid] | < 300 nM
25 | Cc1noc(-c2ccc(-c3ccc(C4(CC(=O)O)CC4)cc3)cc2)c1/C=C/CCc1ccccc1 [Compound 1-102, (1-{4′-[3-Methyl-4-((E)-4-phenyl-but-1-enyl)-isoxazol-5-yl]-biphenyl-4-yl}-cyclopropyl)-acetic acid] | 300 to 1000 nM
26 | CCN(Cc1c(C)noc1-c1ccc(-c2ccc(C3(C(=O)O)CC3)cc2)cc1)C[C@H](C)c1ccccc1 [Compound 1-104, 1-[4′-(4-{[Ethyl-((R)-2-phenyl-propyl)-amino]-methyl}-3-methyl-isoxazol-5-yl)-biphenyl-4-yl]-cyclopropanecarboxylic acid] | < 300 nM
27 | Cc1noc(-c2ccc(-c3ccc(C4(C(=O)O)CC4)cc3)cc2)c1CCC(=O)N(C)[C@H](C)c1ccccc1 [Compound 1-105, 1-[4′-(3-Methyl-4-{2-[(R)-methyl-(1-phenyl-ethyl)-carbamoyl]-ethyl}-isoxazol-5-yl)-biphenyl-4-yl]-cyclopropanecarboxylic acid] | < 300 nM
28 | Cc1noc(-c2ccc(-c3ccc(C4(C(=O)O)CC4)cc3)cc2)c1CCC(=O)NC(C)(C)c1ccccc1 [Compound 1-106, 1-(4′-{3-Methyl-4-[2-(1-methyl-1-phenyl-ethylcarbamoyl)-ethyl]-isoxazol-5-yl}-biphenyl-4-yl)-cyclopropanecarboxylic acid] | 1000 to 50000 nM
29 | Cc1noc(-c2ccc(-c3ccc(C4(C(=O)O)CC4)cc3)cc2)c1CCC(=O)N1Cc2ccccc2C1 [Compound 1-107, 1-(4′-{4-[3-(1,3-Dihydro-isoindol-2-yl)-3-oxo-propyl]-3-methyl-isoxazol-5-yl}-biphenyl-4-yl)-cyclopropanecarboxylic acid] | > 50000 nM
30 | Cc1noc(-c2ccc(-c3ccc(CC(=O)O)cc3)cc2)c1CSCCc1ccccc1 [Compound 1-108, [4′-(3-Methyl-4-phenethylsulfanylmethyl-isoxazol-5-yl)-biphenyl-4-yl]-acetic acid] | < 300 nM
31 | Cc1noc(-c2ccc(-c3ccc(CC(=O)O)cc3)cc2)c1CS(=O)(=O)CCc1ccccc1 [Compound 1-109, {4′-[3-Methyl-4-(2-phenyl-ethanesulfonylmethyl)-isoxazol-5-yl]-biphenyl-4-yl}-acetic acid] | 1000 to 50000 nM

From patent publication US9624182B2, “Compounds as lysophosphatidic acid receptor antagonists” (Amira Pharmaceuticals, Inc., priority 2009, dated 2017)
